# The source made the active and inactive calls.
# Tests used:
# Protein RecA = molecular target: T1, Protein RecA (Mycobacterium tuberculosis, UniProt P9WHJ3); assay: Fluorescence Cell-Free Homogeneous Dose Retest to Identify Inhibitors of RecA-Intein Splicing Activity. [Related pubchem assays (depositor defined):AID2097, AID2223, AID489010, AID492950]; format: functional
# T1 sequence (P9WHJ3 whole entry): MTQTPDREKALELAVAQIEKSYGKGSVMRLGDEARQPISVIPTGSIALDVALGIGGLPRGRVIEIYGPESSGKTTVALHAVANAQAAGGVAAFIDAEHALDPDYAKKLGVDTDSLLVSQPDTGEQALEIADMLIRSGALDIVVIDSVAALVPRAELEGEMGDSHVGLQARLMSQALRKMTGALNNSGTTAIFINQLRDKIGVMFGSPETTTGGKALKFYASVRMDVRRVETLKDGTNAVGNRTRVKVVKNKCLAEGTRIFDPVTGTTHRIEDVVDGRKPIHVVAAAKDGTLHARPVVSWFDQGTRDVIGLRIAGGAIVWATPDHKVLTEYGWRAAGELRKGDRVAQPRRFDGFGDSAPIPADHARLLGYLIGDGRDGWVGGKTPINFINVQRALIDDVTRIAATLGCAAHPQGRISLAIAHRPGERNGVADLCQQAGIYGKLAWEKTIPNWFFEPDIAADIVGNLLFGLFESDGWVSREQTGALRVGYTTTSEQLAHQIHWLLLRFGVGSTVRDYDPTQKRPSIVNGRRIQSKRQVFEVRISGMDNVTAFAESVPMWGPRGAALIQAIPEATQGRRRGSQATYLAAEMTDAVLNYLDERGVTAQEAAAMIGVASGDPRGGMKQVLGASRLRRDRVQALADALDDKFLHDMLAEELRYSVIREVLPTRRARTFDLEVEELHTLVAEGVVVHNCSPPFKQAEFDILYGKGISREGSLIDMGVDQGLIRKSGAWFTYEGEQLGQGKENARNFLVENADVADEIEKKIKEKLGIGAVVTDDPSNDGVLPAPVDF
# [1] = molecular target: T2, Heat shock factor protein 1 (Mus musculus, UniProt P38532); assay: HSF1 potentiators in luciferase reporter cells, confirmation, cell-based, NIH3T3, luminescence, dose retest (AID 435004); format: functional;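 also: stress induced by proteasome inhibitor MG132 added 30 min after compound; luciferase reporter driven by HSF1 response element in NIH3T3 cells; actives raise luminescence as potentiators of the MG132 stress response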
# T2 sequence (P38532 whole entry): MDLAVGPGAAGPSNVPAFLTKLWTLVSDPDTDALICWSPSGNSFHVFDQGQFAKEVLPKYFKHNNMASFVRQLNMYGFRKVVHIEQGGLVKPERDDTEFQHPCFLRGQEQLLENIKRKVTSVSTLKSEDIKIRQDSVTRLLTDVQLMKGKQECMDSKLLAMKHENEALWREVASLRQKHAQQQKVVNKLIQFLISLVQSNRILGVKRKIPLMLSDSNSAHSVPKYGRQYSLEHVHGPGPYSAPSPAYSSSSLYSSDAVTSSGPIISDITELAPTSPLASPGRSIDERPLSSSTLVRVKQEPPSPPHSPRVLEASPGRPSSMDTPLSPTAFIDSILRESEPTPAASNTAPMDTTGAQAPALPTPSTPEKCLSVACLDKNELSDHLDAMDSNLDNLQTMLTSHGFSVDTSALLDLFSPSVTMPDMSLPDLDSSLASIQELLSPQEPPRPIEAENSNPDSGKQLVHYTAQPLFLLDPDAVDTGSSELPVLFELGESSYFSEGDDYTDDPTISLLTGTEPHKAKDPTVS
# Caspase-6 = molecular target: T3, Caspase-6 (Homo sapiens, UniProt P55212); assay: human caspase-6 inhibitors, dose response, biochemical, VEID-R110 fluorescence, cherry-pick (AID 720632)
# T3 sequence (P55212 whole entry): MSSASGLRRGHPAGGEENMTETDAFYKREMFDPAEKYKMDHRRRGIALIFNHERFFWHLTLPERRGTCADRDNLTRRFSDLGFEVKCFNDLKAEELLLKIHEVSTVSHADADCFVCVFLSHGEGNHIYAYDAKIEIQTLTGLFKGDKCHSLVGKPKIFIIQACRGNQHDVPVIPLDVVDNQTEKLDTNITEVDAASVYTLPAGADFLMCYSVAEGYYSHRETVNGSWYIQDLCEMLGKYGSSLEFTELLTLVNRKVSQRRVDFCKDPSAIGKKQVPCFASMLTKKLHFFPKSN
# Keap1/Nrf2 = Keap1/Nrf2 (Homo sapiens, UniProt Q14145); assay: Keap1-Nrf2 protein-protein interaction inhibitors, dose response, biochemical, fluorescence polarization, cherry-picked samples (AID 588683)
# Sequence of Keap1/Nrf2 (Q16236 whole entry): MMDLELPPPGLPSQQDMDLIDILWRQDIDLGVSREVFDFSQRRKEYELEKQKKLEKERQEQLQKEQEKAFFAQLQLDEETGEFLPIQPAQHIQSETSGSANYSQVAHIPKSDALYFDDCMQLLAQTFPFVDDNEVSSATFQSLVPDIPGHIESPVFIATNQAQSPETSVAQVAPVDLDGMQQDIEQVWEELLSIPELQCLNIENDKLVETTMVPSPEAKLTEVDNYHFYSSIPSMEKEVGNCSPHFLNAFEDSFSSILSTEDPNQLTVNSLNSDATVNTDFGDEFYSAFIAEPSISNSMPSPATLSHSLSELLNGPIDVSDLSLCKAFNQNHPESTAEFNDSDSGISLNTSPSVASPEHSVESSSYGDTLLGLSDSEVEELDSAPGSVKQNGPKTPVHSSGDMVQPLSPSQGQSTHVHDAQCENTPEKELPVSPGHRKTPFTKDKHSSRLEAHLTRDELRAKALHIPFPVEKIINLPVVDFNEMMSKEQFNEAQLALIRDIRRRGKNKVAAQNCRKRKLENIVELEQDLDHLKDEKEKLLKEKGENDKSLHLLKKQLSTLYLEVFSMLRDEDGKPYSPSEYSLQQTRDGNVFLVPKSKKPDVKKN
# Sequence of Keap1/Nrf2 (Q14145 whole entry): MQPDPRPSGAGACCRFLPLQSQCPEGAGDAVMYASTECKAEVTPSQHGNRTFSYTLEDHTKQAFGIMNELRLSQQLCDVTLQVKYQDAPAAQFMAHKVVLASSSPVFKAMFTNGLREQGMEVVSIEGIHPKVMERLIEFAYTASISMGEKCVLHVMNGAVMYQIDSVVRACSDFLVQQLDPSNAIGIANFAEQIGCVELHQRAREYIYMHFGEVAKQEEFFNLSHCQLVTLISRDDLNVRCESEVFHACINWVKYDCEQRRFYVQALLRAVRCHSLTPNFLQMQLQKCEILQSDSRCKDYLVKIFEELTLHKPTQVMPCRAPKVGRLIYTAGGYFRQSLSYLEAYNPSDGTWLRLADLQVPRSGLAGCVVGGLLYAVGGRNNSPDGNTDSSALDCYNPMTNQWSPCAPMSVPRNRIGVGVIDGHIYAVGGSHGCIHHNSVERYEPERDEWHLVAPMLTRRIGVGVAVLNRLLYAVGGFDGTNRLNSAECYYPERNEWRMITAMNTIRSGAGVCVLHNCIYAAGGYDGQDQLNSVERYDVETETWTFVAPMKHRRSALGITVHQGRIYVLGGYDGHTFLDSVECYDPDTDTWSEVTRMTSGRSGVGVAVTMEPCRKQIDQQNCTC
# [2] = molecular target: T4, Sentrin-specific protease 8 (Homo sapiens, UniProt Q96LD8); format: functional;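 also: kinetic enzyme assay of SENP8 cleaving a Nedd8 protein substrate, dose-response confirmation of screening hits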
# T4 sequence (Q96LD8 whole entry): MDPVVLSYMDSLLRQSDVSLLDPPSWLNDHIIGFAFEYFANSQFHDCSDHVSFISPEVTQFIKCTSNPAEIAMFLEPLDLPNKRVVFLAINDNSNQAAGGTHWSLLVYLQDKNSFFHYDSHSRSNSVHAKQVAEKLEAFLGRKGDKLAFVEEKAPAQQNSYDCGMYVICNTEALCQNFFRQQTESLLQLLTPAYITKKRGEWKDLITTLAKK
# [3] = molecular target: Mitochondrial peptide methionine sulfoxide reductase (Bos taurus, UniProt P54149); assay: Absorbance-based biochemical high throughput dose response assay for activators of Methionine sulfoxide reductase A (MsrA).; format: functional
# [4] = molecular target: NACHT, LRR and PYD domains-containing protein 1 (Homo sapiens, UniProt Q9C000); assay: NALP1 inhibitors in yeast, dose response, luminescent (AID 488860); format: functional
# [5] = molecular target: Cyclin-dependent kinase 2 (Homo sapiens, UniProt P24941); format: functional;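 also: CDK2 measured as one member of a broad kinome profiling panel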
# [6] = molecular target: Cell division cycle 7-related protein kinase (Homo sapiens, UniProt O00311); format: functional;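 also: value obtained from a kinome-wide kinase panel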
# Sequence of Cell division cycle 7-related protein kinase (O00311 whole entry): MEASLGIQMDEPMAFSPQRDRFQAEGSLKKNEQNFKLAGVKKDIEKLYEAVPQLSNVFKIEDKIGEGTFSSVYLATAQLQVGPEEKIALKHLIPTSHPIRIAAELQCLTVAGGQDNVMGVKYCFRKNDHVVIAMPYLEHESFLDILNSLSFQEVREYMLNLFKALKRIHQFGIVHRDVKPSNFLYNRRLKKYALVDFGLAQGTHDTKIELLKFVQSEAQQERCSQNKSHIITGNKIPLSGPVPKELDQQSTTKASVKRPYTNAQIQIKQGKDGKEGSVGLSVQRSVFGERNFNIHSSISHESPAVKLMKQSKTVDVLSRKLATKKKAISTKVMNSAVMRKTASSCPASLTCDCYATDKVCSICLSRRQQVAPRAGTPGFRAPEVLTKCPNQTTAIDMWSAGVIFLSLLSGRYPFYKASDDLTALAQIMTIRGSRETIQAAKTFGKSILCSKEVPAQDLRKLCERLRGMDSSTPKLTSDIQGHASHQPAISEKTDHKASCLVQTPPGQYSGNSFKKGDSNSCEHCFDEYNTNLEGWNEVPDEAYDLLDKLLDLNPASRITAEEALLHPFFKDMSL
# [7] = molecular target: Homeodomain-interacting protein kinase 2 (Homo sapiens, UniProt Q9H2X6); format: functional;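 also: measured within a kinome-wide kinase profiling panel, HIPK2 being one panel member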
# Focal adhesion kinase 1 = Focal adhesion kinase 1 (Homo sapiens, UniProt Q05397); format: functional;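 also: measured as one member of a kinome panel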
# [8] = molecular target: Mitogen-activated protein kinase kinase kinase 10 (Homo sapiens, UniProt Q02779); assay: Navigating the Kinome. Panel member name: MAP3K10; format: functional
# Sequence of Mitogen-activated protein kinase kinase kinase 10 (Q02779 whole entry): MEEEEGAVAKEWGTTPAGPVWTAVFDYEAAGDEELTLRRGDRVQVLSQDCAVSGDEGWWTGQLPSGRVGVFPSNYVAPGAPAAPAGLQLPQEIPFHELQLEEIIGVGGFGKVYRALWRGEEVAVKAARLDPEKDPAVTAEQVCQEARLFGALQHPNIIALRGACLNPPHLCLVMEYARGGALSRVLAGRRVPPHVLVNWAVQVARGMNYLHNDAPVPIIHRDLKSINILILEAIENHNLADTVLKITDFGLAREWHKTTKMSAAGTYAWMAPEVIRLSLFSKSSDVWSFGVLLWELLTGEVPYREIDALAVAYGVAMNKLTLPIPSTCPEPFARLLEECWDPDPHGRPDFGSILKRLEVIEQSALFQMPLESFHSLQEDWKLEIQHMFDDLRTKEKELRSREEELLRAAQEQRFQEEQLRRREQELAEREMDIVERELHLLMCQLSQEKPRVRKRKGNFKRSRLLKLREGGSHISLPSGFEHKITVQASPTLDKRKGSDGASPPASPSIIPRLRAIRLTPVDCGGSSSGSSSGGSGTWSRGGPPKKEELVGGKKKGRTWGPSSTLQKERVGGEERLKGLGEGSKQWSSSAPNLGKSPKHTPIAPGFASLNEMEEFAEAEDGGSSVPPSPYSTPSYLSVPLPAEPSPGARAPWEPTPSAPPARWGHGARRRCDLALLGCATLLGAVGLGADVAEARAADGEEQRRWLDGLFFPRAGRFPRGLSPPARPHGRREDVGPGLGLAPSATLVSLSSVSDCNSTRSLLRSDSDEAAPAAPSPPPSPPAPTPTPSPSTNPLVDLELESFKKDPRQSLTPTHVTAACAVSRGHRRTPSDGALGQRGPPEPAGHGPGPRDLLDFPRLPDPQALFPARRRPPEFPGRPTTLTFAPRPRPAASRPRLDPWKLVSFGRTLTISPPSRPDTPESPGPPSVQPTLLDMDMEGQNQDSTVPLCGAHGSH
# [9] = molecular target: Tyrosine-protein kinase HCK (Homo sapiens, UniProt P08631); assay: Navigating the Kinome. Panel member name: HCK; format: functional
# Sequence of Tyrosine-protein kinase HCK (P08631 whole entry): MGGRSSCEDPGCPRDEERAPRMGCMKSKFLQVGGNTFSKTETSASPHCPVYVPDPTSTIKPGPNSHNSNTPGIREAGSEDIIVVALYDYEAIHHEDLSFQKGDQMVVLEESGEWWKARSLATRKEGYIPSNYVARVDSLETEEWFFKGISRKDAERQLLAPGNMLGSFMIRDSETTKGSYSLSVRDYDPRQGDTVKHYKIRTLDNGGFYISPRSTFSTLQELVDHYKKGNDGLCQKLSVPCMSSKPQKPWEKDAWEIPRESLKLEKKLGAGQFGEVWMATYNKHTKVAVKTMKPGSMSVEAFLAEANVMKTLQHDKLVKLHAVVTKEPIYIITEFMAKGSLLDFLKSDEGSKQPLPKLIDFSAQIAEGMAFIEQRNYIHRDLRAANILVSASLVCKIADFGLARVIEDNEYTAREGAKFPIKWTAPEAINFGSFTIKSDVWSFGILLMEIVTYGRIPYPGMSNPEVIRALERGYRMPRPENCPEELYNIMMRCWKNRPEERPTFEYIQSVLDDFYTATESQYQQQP
# [10] = molecular target: Proto-oncogene tyrosine-protein kinase ROS (Homo sapiens, UniProt P08922); format: functional;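 also: ROS1 tested as one member of a kinome-wide kinase panel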
# Large T antigen = Large T antigen (Simian virus 40, UniProt P03070); format: functional, Betapolyomavirus macacae;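 also: Confirmatory-stage PubChem screen for compounds that inhibit SV40 T antigen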
# Sequence of Large T antigen (P03070 whole entry): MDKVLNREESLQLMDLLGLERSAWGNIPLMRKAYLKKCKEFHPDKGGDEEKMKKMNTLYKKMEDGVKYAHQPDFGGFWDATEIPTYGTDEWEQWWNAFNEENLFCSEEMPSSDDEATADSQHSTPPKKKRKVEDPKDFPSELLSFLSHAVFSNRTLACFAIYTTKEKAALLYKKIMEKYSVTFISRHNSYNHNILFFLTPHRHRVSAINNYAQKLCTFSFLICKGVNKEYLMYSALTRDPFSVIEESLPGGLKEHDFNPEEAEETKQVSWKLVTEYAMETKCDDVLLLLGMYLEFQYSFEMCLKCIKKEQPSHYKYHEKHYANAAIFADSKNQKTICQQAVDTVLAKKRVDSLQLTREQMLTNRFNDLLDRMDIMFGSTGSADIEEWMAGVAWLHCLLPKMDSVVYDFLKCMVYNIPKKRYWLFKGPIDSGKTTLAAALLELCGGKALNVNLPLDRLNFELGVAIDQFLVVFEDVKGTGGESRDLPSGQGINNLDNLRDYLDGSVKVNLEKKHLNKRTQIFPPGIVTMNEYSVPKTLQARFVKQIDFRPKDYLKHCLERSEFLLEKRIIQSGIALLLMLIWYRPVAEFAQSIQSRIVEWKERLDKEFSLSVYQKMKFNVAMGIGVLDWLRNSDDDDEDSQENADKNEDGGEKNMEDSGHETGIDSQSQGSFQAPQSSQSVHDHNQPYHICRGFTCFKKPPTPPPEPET
# [11] = molecular target: Calcium/calmodulin-dependent protein kinase kinase 2 (Homo sapiens, UniProt Q96RR4); assay: Navigating the Kinome. Panel member name: CAMKK2; format: functional
# Sequence of Calcium/calmodulin-dependent protein kinase kinase 2 (Q96RR4 whole entry): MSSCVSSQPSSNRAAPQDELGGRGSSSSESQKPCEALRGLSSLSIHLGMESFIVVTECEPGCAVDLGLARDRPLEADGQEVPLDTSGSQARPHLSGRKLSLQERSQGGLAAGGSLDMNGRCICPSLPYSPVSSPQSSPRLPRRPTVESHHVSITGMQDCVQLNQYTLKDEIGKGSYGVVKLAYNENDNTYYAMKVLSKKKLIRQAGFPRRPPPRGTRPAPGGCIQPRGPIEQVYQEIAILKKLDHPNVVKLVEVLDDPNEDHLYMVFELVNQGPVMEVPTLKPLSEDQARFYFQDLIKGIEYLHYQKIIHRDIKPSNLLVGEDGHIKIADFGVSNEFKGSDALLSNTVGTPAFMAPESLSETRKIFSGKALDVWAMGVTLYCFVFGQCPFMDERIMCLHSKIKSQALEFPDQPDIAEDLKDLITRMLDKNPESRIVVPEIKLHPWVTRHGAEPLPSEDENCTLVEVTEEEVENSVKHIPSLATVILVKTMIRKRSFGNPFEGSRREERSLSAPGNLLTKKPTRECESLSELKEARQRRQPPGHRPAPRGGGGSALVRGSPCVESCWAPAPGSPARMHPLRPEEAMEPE
# [12] = molecular target: Serine/threonine-protein kinase SIK2 (Homo sapiens, UniProt Q9H0K1); assay: Navigating the Kinome. Panel member name: SIK2; format: functional
# [13] = molecular target: Mitogen-activated protein kinase kinase kinase kinase 4 (Homo sapiens, UniProt O95819); format: functional
# [14] = molecular target: Mitogen-activated protein kinase 10 (Homo sapiens, UniProt P53779); assay: Navigating the Kinome. Panel member name: MAPK10; format: functional
# Sequence of Mitogen-activated protein kinase 10 (P53779 whole entry): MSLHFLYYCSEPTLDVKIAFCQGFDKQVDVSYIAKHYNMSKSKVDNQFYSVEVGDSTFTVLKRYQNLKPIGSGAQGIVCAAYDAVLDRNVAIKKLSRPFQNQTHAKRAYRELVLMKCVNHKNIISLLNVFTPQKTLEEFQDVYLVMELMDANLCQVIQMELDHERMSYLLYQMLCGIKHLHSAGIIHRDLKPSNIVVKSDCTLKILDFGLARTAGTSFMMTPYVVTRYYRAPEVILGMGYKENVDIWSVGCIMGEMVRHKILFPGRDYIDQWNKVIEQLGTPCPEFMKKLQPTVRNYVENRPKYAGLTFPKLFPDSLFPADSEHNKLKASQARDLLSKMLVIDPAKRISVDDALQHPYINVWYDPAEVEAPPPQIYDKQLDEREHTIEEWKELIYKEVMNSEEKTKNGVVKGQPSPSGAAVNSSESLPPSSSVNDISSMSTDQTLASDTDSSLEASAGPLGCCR
structure (smiles),measurement,setting,value
c1ccc2nc3cc4[nH]cnc4cc3nc2c1,EC50,Protein RecA,29.6 µM (inconclusive)
same,EC50,[1],15.5 µM (active)
same,AC50,Caspase-6,33 µM (active)
same,AC50,Keap1/Nrf2,10.4 µM (active)
same,IC50,[2],10.8 µM (active)
same,EC50,[3],53 µM (inactive)
same,IC50,[4],> 100 µM (inactive)
CCCCC(=O)Nc1cc(-c2c[nH]c3ncccc23)cc(Cl)n1,Ki,[5],> 3.16 µM (inactive)
same,Ki,[6],0.000501 µM (active)
same,Ki,[7],> 3.98 µM (inactive)
Oc1ccc(-c2nc(-c3ccncc3)c(-c3ccc(F)cc3)[nH]2)cc1 [SB-202190],Ki,Focal adhesion kinase 1,> 3.98 µM (inactive)
same,Ki,[8],> 3.16 µM (inactive)
same,Ki,[9],> 3.16 µM (inactive)
same,Ki,[10],2.51 µM (active)
same,IC50,Large T antigen,4.87 µM (active)
same,Ki,[11],> 2.51 µM (inactive)
same,Ki,[12],> 3.98 µM (inactive)
same,Ki,[13],1 µM (active)
same,Ki,[14],0.0631 µM (active)
